Measurements: patent US20190321426A1, “COMBINATION THERAPIES WITH CANNABIS PLANT EXTRACT” (TIKUN OLAM LTD, priority 2016, published 2019)

Experiment: Cutaneous wound (skin lesion) at the site of repeated s.c. Copaxone injection in EAE mice
Assay type: in vivo
Conditions: s.c. injection on the mice back; 7 mice/group
Method: The treatments were given daily, five times a week and usually continued for about 60 days. GA were given s.c (at an injection dose of 1 mg/mouse), and cannabis extracts were administrated i.p. (intraperitoneal).
In mice treated with the Copaxone only (2 out of 7 mice), a skin lesion developed on the mice back at the site of repeated Copaxone injections.

Q: With glatiramer acetate [Copaxone] as the substance, how does the “skin lesion at the site of repeated Copaxone injections” value read?
A: 2 out of 7
